As a reminder, the pIC50 is the IC50 on a negative log10 scale, so that one unit is a factor of ten. As a reminder, the pEC50 is −log10 of the EC50, conventionally taken in molar units.

pEC50, pIC50: −log10 of the molar value. Activity calls are given as the source filed them. The calls are words filed in the database; no cut-off is given here.

The values that follow come from ChEMBL document CHEMBL3217624, “Probing androgen receptor co-factor selectivity profiles: a chemical tool to determine cross-talk between androgen receptor and -catenin in vivo” (Medchemcomm, 2013).

Experiment [1] relates to Rattus norvegicus. Put plainly: Androgenic activity in ORX rat model assessed as reduction in plasma luteinizing hormone level at 3 mg/kg, sc qd after 11 days relative to sham control. The experiment is classed as functional, organism-based. The arrangement: dose 3 mg/kg.
Experiment [2] relates to Rattus norvegicus. Nature of the experiment: Androgenic activity in ORX rat model assessed as restoration of hepatic hydroxyacid oxidase2 expression at 10 to 30 mg/kg, sc qd after 11 days by RT-PCR analysis relative to sham control. The settings on record: dose mg/kg 10-30; route subcutaneous. The class given is functional.
The subject of experiment [3] is Rattus norvegicus. Put plainly: Androgenic activity in ORX rat model assessed as reduction in plasma luteinizing hormone level at 30 mg/kg, sc qd after 11 days relative to sham control. The class given is functional, organism-based. The arrangement: dose 30 mg/kg.
Experiment [4] concerns Rattus norvegicus. Put plainly: Androgenic activity in ORX rat model assessed as reduction in plasma luteinizing hormone level at 10 mg/kg, sc qd after 11 days relative to sham control. The experiment is classed as functional, organism-based. The arrangement: dose 10 mg/kg.
The target in experiment [5] is T1, Androgen receptor (Homo sapiens, UniProt P10275).
T1 sequence (P10275 whole entry): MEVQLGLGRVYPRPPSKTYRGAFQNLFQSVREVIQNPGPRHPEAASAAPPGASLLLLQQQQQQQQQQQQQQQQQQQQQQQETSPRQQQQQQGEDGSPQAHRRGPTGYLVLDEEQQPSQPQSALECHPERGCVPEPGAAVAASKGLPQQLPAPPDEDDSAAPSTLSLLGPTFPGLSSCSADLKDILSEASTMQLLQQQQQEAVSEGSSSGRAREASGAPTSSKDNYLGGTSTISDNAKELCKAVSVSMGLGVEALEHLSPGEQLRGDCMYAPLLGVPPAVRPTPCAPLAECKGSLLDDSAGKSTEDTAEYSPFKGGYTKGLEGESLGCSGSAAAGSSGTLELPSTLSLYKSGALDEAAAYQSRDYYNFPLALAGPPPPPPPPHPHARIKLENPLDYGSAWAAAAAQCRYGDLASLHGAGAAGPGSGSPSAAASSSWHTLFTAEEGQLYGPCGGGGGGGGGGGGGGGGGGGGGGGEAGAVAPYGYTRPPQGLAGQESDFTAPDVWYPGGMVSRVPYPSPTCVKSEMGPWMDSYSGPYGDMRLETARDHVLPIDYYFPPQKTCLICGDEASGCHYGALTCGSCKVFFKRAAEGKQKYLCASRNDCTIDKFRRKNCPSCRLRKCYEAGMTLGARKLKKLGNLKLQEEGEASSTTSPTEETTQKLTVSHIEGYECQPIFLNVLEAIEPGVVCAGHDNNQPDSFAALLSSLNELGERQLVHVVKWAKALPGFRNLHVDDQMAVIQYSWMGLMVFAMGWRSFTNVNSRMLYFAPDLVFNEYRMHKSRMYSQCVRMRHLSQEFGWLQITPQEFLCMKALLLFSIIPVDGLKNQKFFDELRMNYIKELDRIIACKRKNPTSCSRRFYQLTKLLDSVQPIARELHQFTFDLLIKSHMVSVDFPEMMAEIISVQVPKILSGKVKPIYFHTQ
Put plainly: Displacement of [3H]mibolerone from human AR expressed in COS cells after 3.5 hrs by liquid scintillation counting analysis. The experiment is classed as cell-based.

The subject of experiment [6] is Rattus norvegicus. Put plainly: Androgenic activity in sc dosed ORX rat model assessed as increase in hepatic carnitine palmitoyltransferase1 expression after 11 days by RT-PCR analysis relative to sham control. The experiment is classed as functional.
Experiment [7] relates to Rattus norvegicus. Nature of the experiment: Androgenic activity in ORX rat model assessed as effect on seminal vesicle weight at 3 to 30 mg/kg, sc qd after 11 days relative to sham control. The experiment is classed as functional, organism-based.
In experiment [8] the target is T1, Androgen receptor. Nature of the experiment: Agonist activity at human AR expressed in African green monkey CV1 cells after 17 hrs by ARE-driven luciferase reporter gene assay. The class given is cell-based, CV-1.
In experiment [9] the target is T2, Androgen receptor (Homo sapiens) (UniProt P10275).
T2 sequence (whole entry): T1 sequence (P10275 whole entry)
Nature of the experiment: Agonist activity at human AR expressed in African green monkey CV1 cells assessed as supression of beta-catenin at 1000 nM after 17 hrs by Wnt 12xTcf-luciferase reporter gene assay relative to control. The experiment is classed as cell-based. The conditions noted are these: CV-1. In general terms: A reporter such as luciferase makes a cellular process visible.

Experiment [10] has as its system Rattus norvegicus. Nature of the experiment: Androgenic activity in ORX rat model assessed as increase in seminal vesicle weight at 1 mg/kg, sc qd after 11 days relative to sham control. The class given is functional, organism-based. The arrangement: dose 1 mg/kg.
Experiment [11] relates to Rattus norvegicus. Nature of the experiment: Androgenic activity in ORX rat model assessed as restoration of hepatic hydroxyacid oxidase2 expression at 1 mg/kg, sc qd after 11 days by RT-PCR analysis relative to sham control. The class given is functional, organism-based. The arrangement: dose 1 mg/kg.
In experiment [12] the test system is Rattus norvegicus. Nature of the experiment: Androgenic activity in ORX rat model assessed as increase in prostate weight at 1 mg/kg, sc qd after 11 days relative to sham control. The experiment is classed as functional, organism-based. The arrangement: dose 1 mg/kg. The conditions noted are these: Prostate gland.
For experiment [13], the system named is Rattus norvegicus. Nature of the experiment: Androgenic activity in ORX rat model assessed as increase in levator ani muscle weight at 1 mg/kg, sc qd after 11 days relative to sham control. The class given is functional, organism-based. The arrangement: dose 1 mg/kg.
In experiment [14] the test system is Rattus norvegicus. Nature of the experiment: Androgenic activity in ORX rat model assessed as reduction in plasma luteinizing hormone level at 1 mg/kg, sc qd after 11 days relative to sham control. The arrangement: dose 1 mg/kg. The class given is functional, organism-based.
In experiment [15] the test system is Rattus norvegicus. Put plainly: Androgenic activity in ORX rat model assessed as increase in hepatic carnitine palmitoyltransferase1 expression at 1 mg/kg, sc qd after 11 days by RT-PCR analysis relative to sham control. The settings on record: route subcutaneous. The experiment is classed as functional.

In the case of `CN1C(=O)C(F)=C[C@]2(C)[C@H]3CC[C@]4(C)[C@@H](C(=O)NCc5nc6cccnc6[nH]5)CC[C@H]4[C@@H]3CC[C@@H]12` [MK-0773], the result in the experiment on Rattus norvegicus [1], with Rattus norvegicus [3] and in the experiment with Rattus norvegicus [7] was inactive. Moreover, the “fold change (FC)” value in the experiment with Rattus norvegicus [2] was 2.5; in the experiment with Rattus norvegicus [6] it was 2. In the experiment with Rattus norvegicus [4], the result was Active. The molecule also had a negative logarithm of the IC50 (pIC50) at Androgen receptor [5] of 6.71. The Activity entry is “Dose-dependent effect” with Rattus norvegicus [6] and 32% in experiment [9]. The pEC50 on Androgen receptor [8] was 6.84.

`CCC(=O)O[C@H]1CC[C@H]2[C@@H]3CCC4=CC(=O)CC[C@]4(C)[C@H]3CC[C@]12C` [TESTOSTERONE PROPIONATE]: the outcome in the experiment with Rattus norvegicus [10], with Rattus norvegicus [11], in the experiment with Rattus norvegicus [12], with Rattus norvegicus [13] and with Rattus norvegicus [14] was Active. Moreover, on Androgen receptor [5], the pIC50 is 7.74. The “fold change (FC)” value in the experiment with Rattus norvegicus [15] was found to be 2.
